Patent US10329262B2, “Quinazolinone antibiotics” (priority 2013, dated 2019)
In brackets after ≈: the same amount, converted by molar mass.

What was measured:
[1] = cited from earlier work
S. aureus VRS2 = assay: MIC, CLSI broth microdilution, S. aureus VRS2; type: cell-based, Staphylococcus aureus
Description: (§1) MICs were evaluated following the CLSI microdilution method in BBL™ Mueller-Hinton II broth (Wikler et al., Clinical Laboratory Standards Institute Document M7-A7, 29 (2009)). Briefly, two-fold serial dilutions of compound were prepared in triplicate in 96-well plates and inoculated with 5×10^5 cfu/mL of the bacterial suspension. Plates were incubated at 37° C. for 16-20 hours.

S. aureus NRS119 = assay: MIC, CLSI broth microdilution, S. aureus NRS119; type: cell-based, Staphylococcus aureus
Description: as §1

[2] = test system: S. haemolyticus ATCC 29970; assay: MIC, CLSI broth microdilution, S. haemolyticus ATCC 29970; type: cell-based
Description: as §1

S. aureus NRS120 = assay: MIC, CLSI broth microdilution, S. aureus NRS120; type: cell-based, Staphylococcus aureus
Description: as §1

[3] = test system: S. epidermidis ATCC 35547; assay: MIC, CLSI broth microdilution, S. epidermidis ATCC 35547; type: cell-based
Description: as §1

S. aureus NRS123 = assay: MIC, broth microdilution, S. aureus NRS123; type: cell-based; details: Staphylococcus aureus, NRS123
Description: as §1

S. aureus NRS70 = assay: MIC, broth microdilution, S. aureus NRS70; type: cell-based, Staphylococcus aureus
Description: as §1

[4] = test system: S. aureus ATCC 29213 (MSSA); assay: MIC, CLSI broth microdilution, S. aureus ATCC 29213; type: cell-based, Staphylococcus aureus; details: Table 2.1, S. aureus ATCC 29213
Description: as §1

S. aureus NRS100 = assay: MIC, CLSI broth microdilution, S. aureus NRS100; type: cell-based, Staphylococcus aureus
Description: as §1

S. aureus NRS128 = assay: MIC, CLSI broth microdilution, S. aureus NRS128; type: cell-based, Staphylococcus aureus; details: Table 2.1, S. aureus NRS128
Description: as §1

S. aureus VRS1 = assay: MIC, CLSI broth microdilution, S. aureus VRS1; type: cell-based, Staphylococcus aureus
Description: as §1

S. aureus (ATCC 29213) = assay: Macromolecular synthesis assays; type: cell-based, Staphylococcus aureus; details: Staphylococcus aureus, ATCC29213; positive control, 16 μg/mL; read-out: Inhibition of cell-wall (peptidoglycan) biosynthesis
From the text: Mechanism of Action of the Quinazolinones. The mode of action of 2 was investigated by macromolecular synthesis assays in S. aureus in the logarithmic phase, which monitor incorporation of radiolabeled precursors [methyl-^3H]-thymidine, [5-^3H]-uridine, L-[4,5-^3H]-leucine, or D-[2,3-^3H]-alanine into DNA, RNA, protein, or cell wall (peptidoglycan), respectively. Inhibition of radiolabeled precursor incorporation by 2 at a concentration of half the MIC was compared with those of known inhibitors of each pathway (ciprofloxacin, rifampicin, tetracycline, and fosfomycin, respectively).
The mode of action of 2 was investigated by macromolecular synthesis assays in S. aureus in the logarithmic phase (Miller, A A et al. Antimicrob. Agents Chemother. 52, 2806-12 (2008)), which monitor incorporation of radiolabeled precursors [methyl-^3H]-thymidine, [5-^3H]-uridine, L-[4,5-^3H]-leucine, or D-[2,3-^3H]-alanine into DNA, RNA, protein, or cell wall (peptidoglycan), respectively.
The incorporation of radiolabeled precursors—[methyl-^3H]-thymidine, [5-^3H]-uridine, L-[4,5-^3H]-leucine, or D-[2,3-^3H]-alanine—into DNA, RNA, protein, or peptidoglycan, respectively, in logarithmically growing S. aureus (ATCC 29213) was measured using a previously published method, with aliquots taken every 20 min over a 120-min incubation period (Wilson et al., Antimicrob. Agents Chemother. 39, 1925-33 (1995)).

In the case of `CCCCCCCCCC(=O)N[C@@H](Cc1c[nH]c2ccccc12)C(=O)N[C@H](CC(N)=O)C(=O)N[C@@H](CC(=O)O)C(=O)N[C@@H]1C(=O)NCC(=O)N[C@@H](CCCN)C(=O)N[C@@H](CC(=O)O)C(=O)N[C@H](C)C(=O)N[C@@H](CC(=O)O)C(=O)NCC(=O)N[C@H](CO)C(=O)N[C@@H]([C@H](C)CC(=O)O)C(=O)N[C@@H](CC(=O)c2ccccc2N)C(=O)O[C@@H]1C` [daptomycin], the Plasma protein binding [1] is listed as greater than 91%.
In the case of `CN[C@H](CC(C)C)C(=O)N[C@H]1C(=O)N[C@@H](CC(N)=O)C(=O)N[C@H]2C(=O)N[C@H]3C(=O)N[C@H](C(=O)N[C@H](C(=O)O)c4cc(O)cc(O)c4-c4cc3ccc4O)[C@H](O)c3ccc(c(Cl)c3)Oc3cc2cc(c3O[C@@H]2O[C@H](CO)[C@@H](O)[C@H](O)[C@H]2O[C@H]2C[C@](C)(N)[C@H](O)[C@H](C)O2)Oc2ccc(cc2Cl)[C@H]1O` [vancomycin], the MIC (S. aureus VRS2; Staphylococcus aureus, VRS2) is reported as 64 µg/mL (≈ 44.2 µM), the In vitro AB activity (MIC) (S. aureus VRS2; Table 2.1, S. aureus VRS2) is reported as 64 µg/mL and the MIC (S. aureus NRS119; Staphylococcus aureus, NRS119) is reported as 2 µg/mL (≈ 1.38 µM). The In vitro AB activity (MIC) (S. aureus NRS119; Table 2.1, S. aureus NRS119) was 2 µg/mL, the MIC ([2]; Staphylococcus haemolyticus, ATCC29970) was 2 µg/mL (≈ 1.38 µM) and the In vitro AB activity (MIC) ([2]; Table 2.1, S. haemolyticus ATCC 29970) was 2 µg/mL. The MIC (S. aureus NRS120; Staphylococcus aureus, NRS120) was 2 µg/mL (≈ 1.38 µM), the In vitro AB activity (MIC) (S. aureus NRS120; Table 2.1, S. aureus NRS120) was 2 µg/mL and the MIC ([3]; Staphylococcus epidermidis, ATCC35547) was 64 µg/mL (≈ 44.2 µM). It also gave an In vitro AB activity (MIC) ([3]; Table 2.1, S. epidermidis ATCC 35547) of 16 µg/mL, an MIC (S. aureus NRS123) of 1 µg/mL (≈ 0.69 µM) and an MIC (S. aureus NRS70; Staphylococcus aureus, NRS70) of 1 µg/mL (≈ 0.69 µM). For the same molecule, the In vitro AB activity (MIC) (S. aureus NRS70; Table 2.1, S. aureus NRS70) was 1 µg/mL, the In vitro AB activity (MIC) [4] was 1 µg/mL and the MIC (S. aureus NRS100; Staphylococcus aureus, NRS100) was 2 µg/mL (≈ 1.38 µM). The In vitro AB activity (MIC) (S. aureus NRS100; Table 2.1, S. aureus NRS100) was 2 µg/mL, the In vitro AB activity (MIC) (S. aureus NRS128) was 1 µg/mL and the MIC (S. aureus VRS1; Staphylococcus aureus, VRS1) was greater than 256 µg/mL. It also gave an In vitro AB activity (MIC) (S. aureus VRS1; Table 2.1, S. aureus VRS1) of 512 µg/mL.
For `C[C@@H]1O[C@@H]1P(=O)(O)O` [fosfomycin, reference compound], the inhibition at 16 µg/mL (S. aureus (ATCC 29213)) was 64 ± 8%.
